In patent publication US10973748B2, “Compositions and methods for lightening skin and reducing hyperpigmentation” (Versitech Limited, priority 2016, dated 2021):

Columns and labels:
[1] = test system: MelanoDerm (Mel-300-A) epidermal equivalents containing melanocytes; test: Tissue viability of artificial skin model (CCK-8); format: cell-based, human; settings: whole treatment period (14 days), rapamycin 2.5 μM, 6-CEPN 10 μM, 8-CEPQ 5 μM
Method: (§1) Epidermal equivalents containing melanocytes (Mel-300-A) were maintained according to the manufacturer's instructions. Mel-300-A tissue was cultured in EPI-100-NMM-113 medium for 14 days. Agents were dissolved in tissue culture medium and changed every other day. The test agents were either (1) rapamycin (2.5 μM), as the positive control in depigmentation, (2) 6-CEPN (10 μM), or (3) 8-CEPQ (5 μM). The concentration of rapamycin used was lower than 6-CEPN and 8-CEPQ, as rapamycin is toxic to cells at higher concentration. Pigmentation of these skin equivalents was compared against treatment of cells with a culture medium only (denoted as “vehicle”). Tissue viability was assessed on day 14 by CCK-8 assay as described in Example 1. On day 14, single tissues were harvested and photographed. The L* parameter was used to evaluate skin lightening or darkening. The lighter the skin, the greater the L* value. ΔL* value was measured by a Chroma Meter CR400 (Konica Minolta) for an evaluation of lightening as a function of time. Three tissues for each treatment were frozen for the Solvable Melanin assay (Bessou-Touya et al., “Chimeric human epidermal reconstructs to study the role of melanocytes and keratinocytes in pigmentation and photoprotection.” Journal of investigative dermatology 111(6):1103-1108 (1998)). Additional tissues were fixed by 10% formanin. For melanin staining in paraffin-embedded tissues, Fontana-Masson silver staining was used as previously detailed (Barbosa et al., “A simple and economical modification of the Masson-Fontana method for staining melanin granules and enterochromaffin cells.” Stain technology 59(4):193-196 (1984)).

[2] = test system: melan-a cells; test: Melanosome autophagy by fluorescence microscopy; format: cell-based, murine; settings: α-MSH, rapamycin 0.5 μM 24 hrs, 6-CEPN 10 μM, 8-CEPQ 5 μM 72 hrs
Method: Melan-a cells (1.5×10^5 cells/well) were seeded on coverslips in 6-well palte. The cells were treated with (1) α-MSH (1 μM) alone for 24 hrs, (2) α-MSH (1 μM) plus rapamycin (0.5 μM) for 24 hrs, (3) α-MSH (1 μM) plus 6-CEPN (10 μM), or (3) α-MSH (1 μM) plus 8-CEPQ (5 μM) for 72 hrs. Culture medium was removed carefully after the cells reached 50%˜70% level of confluence. Cells were stained by microscopy dual detection reagents (autophagy detection kit, Abcam) for 30 mins at 37° C. The stained cells were analyzed by wide-field fluorescence microscopy (60× magnification). Standard FITC filter and DAPI filter were set to image the autophagic signal and the nuclear signal, respectively.

[3] = molecular target: T1, tyrosinase (Mus musculus, UniProt P11344); test: Cellular tyrosinase activity assay (L-DOPA oxidation in cell lysates); format: cell-based, murine; settings: melan-a cells, α-MSH, 72 hrs; 6-CEPN 10 or 20 μM, 8-CEPQ 2.5 or 5 μM
T1 construct: endogenous in cells; host or cells: melan-a cells
T1 sequence (P11344 19-533): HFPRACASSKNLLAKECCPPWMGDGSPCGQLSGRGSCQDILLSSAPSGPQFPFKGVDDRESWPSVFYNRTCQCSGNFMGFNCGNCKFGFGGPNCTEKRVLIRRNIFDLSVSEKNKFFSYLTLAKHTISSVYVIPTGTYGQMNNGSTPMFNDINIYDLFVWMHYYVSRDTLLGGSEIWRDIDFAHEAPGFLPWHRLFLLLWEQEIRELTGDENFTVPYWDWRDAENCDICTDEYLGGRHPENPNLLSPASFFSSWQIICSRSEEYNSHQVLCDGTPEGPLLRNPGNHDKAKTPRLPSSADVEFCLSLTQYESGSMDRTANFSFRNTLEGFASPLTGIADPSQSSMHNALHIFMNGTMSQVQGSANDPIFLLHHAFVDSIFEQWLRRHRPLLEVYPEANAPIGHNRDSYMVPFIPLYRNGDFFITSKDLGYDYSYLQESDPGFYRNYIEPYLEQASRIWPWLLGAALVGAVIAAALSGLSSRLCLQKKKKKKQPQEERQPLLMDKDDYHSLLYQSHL
Method: Cellular tyrosinase activity was determined by measuring the oxidation of L-3,4-dihydroxyphenylalanine (L-DOPA) to dopachrome in cell lysates. Melan-a cells (1.5×10^5 cells/well) were plated in 1 mL of culture medium in a 24-well multidishes for at least 24 hrs prior to use. The cells were treated with α-MSH (1 μM) alone or with α-MSH plus different concentrations of testing agents for 72 hrs. The cells were washed with cold PBS and lysed in 900 μL of PBS with 1% Triton X-100. After being freeze-thawed at −80° C. for 30 min followed by 25° C. for 30 min, 100 μL of 10 mM L-DOPA was then added to each well. Following incubation at 37° C. for 1 hr, the absorbance of the agents was measured at 490 nm using Victor X4 Multilabel Plate Reader (PerkinElmer, Mass., USA).

[4] = test system: MelanoDerm (Mel-300-A) epidermal equivalents containing melanocytes; test: Depigmentation in artificial skin model: brightness and L* value; format: cell-based, human; settings: 6-CEPN 10 μM, 8-CEPQ 5 μM
Method: as §1

[5] = test system: MelanoDerm (Mel-300-A) epidermal equivalents containing melanocytes; test: Solvable Melanin assay in artificial skin model; format: cell-based, human; settings: 14 days, rapamycin 2.5 μM, 6-CEPN 10 μM, 8-CEPQ 5 μM
Method: Epidermal equivalents containing melanocytes (Mel-300-A) were maintained according to the manufacturer's instructions. Mel-300-A tissue was cultured in EPI-100-NMM-113 medium for 14 days. Agents were dissolved in tissue culture medium and changed every other day. The test agents were either (1) rapamycin (2.5 μM), as the positive control in depigmentation, (2) 6-CEPN (10 μM), or (3) 8-CEPQ (5 μM). The concentration of rapamycin used was lower than 6-CEPN and 8-CEPQ, as rapamycin is toxic to cells at higher concentration. Pigmentation of these skin equivalents was compared against treatment of cells with a culture medium only (denoted as “vehicle”). Tissue viability was assessed on day 14 by CCK-8 assay as described in Example 1. On day 14, single tissues were harvested and photographed. The L* parameter was used to evaluate skin lightening or darkening. The lighter the skin, the greater the L* value. ΔL* value was measured by a Chroma Meter CR400 (Konica Minolta) for an evaluation of lightening as a function of time. Three tissues for each treatment were frozen for the Solvable Melanin assay (Bessou-Touya et al., “Chimeric human epidermal reconstructs to study the role of melanocytes and keratinocytes in pigmentation and photoprotection.” Journal of investigative dermatology 111(6):1103-1108 (1998)). Additional tissues were fixed by 10% formanin. […]

[6] = test system: MelanoDerm (Mel-300-A) epidermal equivalents containing melanocytes; test: Fontana-Masson silver staining of artificial skin model; format: cell-based, human; settings: day 14, rapamycin 2.5 μM, 6-CEPN 10 μM
Method: as §1

Row | SMILES | cytotoxicity (tissue viability) [1] | melanosome autophagy [2] | tyrosinase activity [3] | brightness of the tissues (visual examination) ([4]; 14 days, rapamycin 2.5 μM) | L* value vs negative control ([4]; day 14, rapamycin 2.5 μM) | amount of melanin in human skin equivalents [5] | thickness of basal layer of tissue [6]
1 | O=c1c(O)c(-c2ccc(O)c(O)c2)oc2c(/C=C/c3ccccc3)c(O)cc(O)c12 [8-CEPQ, 8-C-(E-phenylethenyl)-quercetin] | without significant cytotoxicity | induced melanosome autophagy | significant inhibition on tyrosinase activity in a dose-dependent manner | increased the brightness of the tissues | increased the L* value | significantly inhibited the amount of melanin | 
2 | CO[C@H]1C[C@@H]2CC[C@@H](C)[C@@](O)(O2)C(=O)C(=O)N2CCCC[C@H]2C(=O)O[C@H]([C@H](C)C[C@@H]2CC[C@@H](O)[C@H](OC)C2)CC(=O)[C@H](C)/C=C(\C)[C@@H](O)[C@@H](OC)C(=O)[C@H](C)C[C@H](C)/C=C/C=C/C=C/1C [rapamycin, reference compound] | without significant cytotoxicity |  |  |  |  |  | thinner than 6-CEPN-treated or non-treated control groups
